Earlier results, collected in US20040208936A1, “Novel compositions” (priority 2002, published 2004).
Converted amounts (≈) assume the structure as drawn.

System: S pneumoniae
Conditions: some 10% of pneumococci

MIC: 2 µg/mL (≈ 5.47 µM)
Structure (SMILES): CC1(C)S[C@@H]2[C@H](NC(=O)[C@H](N)c3ccc(O)cc3)C(=O)N2[C@H]1C(=O)O [Amoxicillin]
